# Test results taken from the supplement of paper PMC13380429.
# Legend:
# Details in all cases: 72 h
# HepG2 [1] = assay: relative viability EC50 (midpoint between 100% and the lowest measured viability); higher = less toxic
# Vero E6 [2] = assay: as above
# Calu-3 [3] = assay: as above
# Caco-2 [4] = assay: as above
# U2OS [5] = assay: as above
# HepG2 [6] = assay: cell viability relative to DMSO; higher = less toxic
# Vero E6 [7] = assay: as above
# Calu-3 [8] = assay: as above
# Caco-2 [9] = assay: as above
# U2OS [10] = assay: as above
# HepG2 [11] = assay: drug sensitivity score (DSS) for viability; higher = more toxic; extreme values may be limits of the assay
# Vero E6 [12] = assay: as above
# Calu-3 [13] = assay: as above
# Caco-2 [14] = assay: as above
# U2OS [15] = assay: as above
Compound,relative viability EC50 (HepG2 [1]) [µM],relative viability EC50 (Vero E6 [2]) [µM],relative viability EC50 (Calu-3 [3]) [µM],relative viability EC50 (Caco-2 [4]) [µM],relative viability EC50 (U2OS [5]) [µM],cell viability (HepG2 [6]; 1 nM) [%],cell viability (HepG2 [6]; 10 nM) [%],cell viability (HepG2 [6]; 100 nM) [%],cell viability (HepG2 [6]; 1000 nM) [%],cell viability (HepG2 [6]; 10000 nM) [%],cell viability (Vero E6 [7]; 1 nM) [%],cell viability (Vero E6 [7]; 10 nM) [%],cell viability (Vero E6 [7]; 100 nM) [%],cell viability (Vero E6 [7]; 1000 nM) [%],cell viability (Vero E6 [7]; 10000 nM) [%],cell viability (Calu-3 [8]; 1 nM) [%],cell viability (Calu-3 [8]; 10 nM) [%],cell viability (Calu-3 [8]; 100 nM) [%],cell viability (Calu-3 [8]; 1000 nM) [%],cell viability (Calu-3 [8]; 10000 nM) [%],cell viability (Caco-2 [9]; 1 nM) [%],cell viability (Caco-2 [9]; 10 nM) [%],cell viability (Caco-2 [9]; 100 nM) [%],cell viability (Caco-2 [9]; 1000 nM) [%],cell viability (Caco-2 [9]; 10000 nM) [%],cell viability (U2OS [10]; 1 nM) [%],cell viability (U2OS [10]; 10 nM) [%],cell viability (U2OS [10]; 100 nM) [%],cell viability (U2OS [10]; 1000 nM) [%],cell viability (U2OS [10]; 10000 nM) [%],drug sensitivity score (HepG2 [11]),drug sensitivity score (Vero E6 [12]),drug sensitivity score (Calu-3 [13]),drug sensitivity score (Caco-2 [14]),drug sensitivity score (U2OS [15])
CC(=O)[C@H]1CC[C@H]2[C@@H]3C[C@H](C)C4=CC(=O)CC[C@]4(C)[C@H]3[C@@H](O)C[C@]12C [medrysone],> 10,> 10,> 10,> 10,> 10,102,98.4,108,101,112,98,95,97.9,95.6,100,91.5,98.5,101,91.3,93.4,90.4,97.5,98.2,101,102,97.6,97.4,99.8,101,99.6,0,0,0,0,0
O=C(O)Cc1cccc(OCCCN(Cc2cccc(C(F)(F)F)c2Cl)CC(c2ccccc2)c2ccccc2)c1 [GW-3965],> 10,> 10,> 10,> 10,> 10,90.9,99.3,116,97.5,92.5,112,98.8,100,101,104,93.6,101,108,114,98.8,92.8,107,97.8,98.1,77.7,100,99.2,98.2,101,95.6,0,0,0,1,0
CCOC(=O)[C@H](CCc1ccccc1)N[C@@H](C)C(=O)N1CCC[C@H]1C(=O)O [enalapril],> 10,> 10,> 10,> 10,> 10,103,95.4,98.4,109,109,97.2,99.3,98.2,100,107,90.5,98.3,92.2,101,91.9,92.4,97.1,84.1,102,100,97.9,101,99.5,98.6,102,0,0,0,0,0
CCOc1ccccc1C(N)=O [ethenzamide],> 10,> 10,> 10,> 10,> 10,101,94.9,95.4,102,91.2,104,98.1,101,92.6,97.3,95.3,101,99.5,98.1,103,100,97,97.6,98.9,103,106,97.9,100,98.2,100,0,0,0,0,0
CCCCc1ccc(O)cc1O [rucinol],> 10,> 10,> 10,> 10,> 10,110,87.5,107,92.5,81.5,111,84.9,106,91.8,103,101,98,83.4,102,83.8,102,95.3,83.5,114,106,101,99,99.8,104,96.7,1.3,0,0.1,0,0
CCn1cc(C(=O)O)c(=O)c2cc(F)c(N3CCN(C)CC3)cc21 [pefloxacin],> 10,> 10,> 10,> 10,> 10,88.6,100,106,99.3,94.6,96.8,101,94.2,95.3,90.4,100,97.8,97.2,83.3,99,94.5,80.2,104,89.5,94.1,104,94.8,98.4,96,96,0,0,0,0,0
O=C(NCc1ccncc1)C12CC3CC(C1)CC(c1ccc(Cl)cc1)(C3)C2,> 10,> 10,> 10,> 10,> 10,96.7,107,105,98,93.7,102,104,104,105,89.3,104,100,89,92.2,89.3,99.6,94.9,98.6,96,92.9,97.4,99.2,101,97.8,93.5,0,0,0.5,0,0
COc1cc(OC)c(C(=O)CCCN2CCCC2)c(OC)c1 [buflomedil],> 10,> 10,> 10,> 10,> 10,90.5,97.2,97.3,94.4,99,95.7,99,94.1,97.5,108,87.5,86.3,90.2,88.6,101,101,103,96.2,96,106,104,99.3,102,98.8,108,0,0,0,0,0
Cc1cc(C(=O)CN2CCCC2)c(C)n1-c1ccc(F)cc1 [IU1],> 10,> 10,> 10,> 10,> 10,95.7,100,101,102,103,99.2,97.8,98.4,94.6,105,112,99.9,102,109,104,103,105,101,108,99.1,92.3,98.8,95.5,96.2,109,0,0,0,0,0
O=C(COc1cccc2c(=O)[nH]ccc12)c1ccccc1 [UPF-1069],> 10,> 10,> 10,> 10,> 10,97,95.6,98.5,89,88,94.2,108,107,93.8,94.6,98.2,101,92.9,96.8,90.2,95.6,92.5,94.8,87,84.5,102,101,95.1,103,93.9,0.1,0,0,0.8,0
Nc1[nH]cnc2ncnc1-2 [adenine],> 10,> 10,> 10,> 10,> 10,77.5,98.7,92.8,92.5,93.2,104,103,101,91.7,98.2,91.3,93.3,112,108,90.7,91.8,95.9,104,88.5,114,93.8,103,98.4,99.5,110,0,0,0,0,0
